This note sets out measurements from paper PMC4501547, “Virtual and In Vitro Screens Reveal a Potential Pharmacophore that Avoids the Fibrillization of Aβ1–42” (PLoS ONE, 2015).

In experiment [1] the target is T1, Aβ1–42 (amyloid β peptide, 42 residues) (Homo sapiens, UniProt P05067).
T1 construct: gene APP; wild-type 42-residue peptide Abeta 1-42, cut from amyloid-beta precursor protein (APP770 residues 672-713); lyophilized, chloride salt, purchased from Calbiochem; non-fibrillated at start, aggregating during the assay
T1 sequence (P05067 672-713): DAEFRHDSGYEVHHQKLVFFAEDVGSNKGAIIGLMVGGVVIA
Description: Thioflavin T fluorescence fibrillization assay. In kind it is biochemical.

Experiment [2] concerns the target T1, Aβ1–42 (amyloid β peptide, 42 residues). Description: Thioflavin T fluorescence fibrillization assay. In kind it is biochemical. The source holds these as a separate data set.

Structures are written as SMILES.

In the case of `CC(C(=O)Nc1ccc(C(C)(C)C)cc1)N1CCCC1` (stereo not drawn) [compound 5], the half-maximal inhibitory concentration (IC50) (in general, the concentration that gives 50% inhibition) in experiment [1] worked out at 1.28 µM.

Take `O=C(COc1ccccc1)C1CCCN1` (stereo not drawn) [compound 8]: the IC50 in experiment [1] was determined as 34.4 µM.

Turning to `COc1ccc(C2CNC(=O)C2)cc1OC1CCCC1` (stereo not drawn) [compound 14], in experiment [2], the inhibition – broadly, how much of the control response was suppressed – at 100 µM was around 50%.
